Columns and labels:
[1] = tested on: isolated aortic rings from male wild-type, heterozygote and Clcn3 knockout mice; test: Dose-response to norepinephrine in isolated mouse aortic rings; settings: L-NNA 10^−4 M, wild-type tissues, FIG. 17
Procedure: Animals were sacrificed by exposure to 100% CO2 for five minutes followed by cervical dislocation. Thoracic aortae were removed, cleaned of adherent connective tissue and cut into 4 rings. […] Contractile responses were recorded using a MacLab 8E and stored on a Power MacIntosh 6400/200 computer. Passive stretch was set at 5.0 mN and the rings were allowed to equilibrate in Physiologic Salt Solution (PSS) at 37° C. for 60 minutes prior to the start of experimentation.

[2] = tested on: swelling-induced Cl ion current in cultured human aortic and coronary vascular smooth muscle cells; test: Whole-cell voltage-clamp of swelling-induced chloride current; assay type: cell-based; settings: for Effect on swelling-induced Cl current: hypotonic conditions, whole-cell patch clamp, β-estradiol 10^−7 M, H-7 10^−5 M
Procedure: Electrophysiology. Chloride ion currents were measured from cultured human aortic and coronary vascular smooth muscle cells at room temperature (22-24° C. using standard whole-cell voltage-clamp techniques (Hamill et al., 1981; Lamb et al., 1994) and an Axopatch 200B patch-clamp amplifier driven by pClamp software (Axon Instruments). The hypotonic (250 mOsm/kg by freezing point depression) bath solution contained (mM): NaCl 125, MgCl2 2.5, CaCl2 2.5, HEPES 10, pH 7.2. Isotonic bath solution had the same ionic composition as the hypotonic solution except that the osmolality was adjusted to 300 mOsm/kg by adding mannitol. Pipette solution contained (mM): N′-methyl-D-glucamine chloride (NMDG—Cl) 135, EGTA 2, Mg-ATP 5, HEPES 10, pH 7.2 with osmolality adjusted to 300 mOsm/kg by adding mannitol. Thus, the chloride equilibrium potential remained 0 mV under both isotonic and hypotonic conditions. All components of the buffer solutions were obtained from Sigma. Pipette resistances were 3-5 MOhms.

Clcn3^−/− mice = test: Recovery from sedatives in adult Clcn3-/- mice
[3] = tested on: Clcn3 knockout, heterozygous and wild type mice; test: Pentylenetetrazole-induced seizure susceptibility; assay type: in vivo, mouse; settings: PTZ 70 mg/kg i.p.
Procedure: The proconvulsant, pentylenetetrazole (PTZ), was dissolved at 7 mg/ml in sterile 0.9% NaCl and administered to drug-naive mice at 70 mg/kg i.p. in a quiet daytime laboratory setting. Parameters measured during the 15-minute observation period included time to onset of generalized tonic-clonic or tonic seizures, and duration of the first generalized seizure. Lethality was assessed 60 minutes post-injection (Loscher and Nolting, 1991).

[4] = tested on: isolated rings of rat aorta; test: Contractile response to ED80 norepinephrine or KCl in isolated rings of rat aorta (earlier studies, Lamb and Barna 1998); settings: for Vasodilator effect in the presence of NE or KCl: denuded blood vessel segments; for Effect on contractile response to ED80 concentrations of NE or KCl: rings with intact endothelium
Source text: The above experiments were reported in Lamb and Barna, Am. J. Physiol., 275 H151 (1998) and Lamb and Barna, Am. J. Physiol., 275, 161 (1998), and are incorporated herein by reference.

erectile function = settings: cited from earlier work
[5] = tested on: ion channel responsible for swelling-induced chloride conductance (CLC3); settings: Duan et al. 1997; Nilius et al. 1994; cited from earlier work
[6] = tested on: rat thoracic aorta rings (vascular smooth muscle), intact or denuded endothelium; test: KCl-induced contraction of isolated aortic rings, isometric tension; settings: 10 μM tamoxifen, FIG. 3
Procedure: Adult male Sprague-Dawley rats (250-300 g) were obtained from Harlan Sprague Dawley. The animals were killed by exposure to 100% CO2 for 5 minutes, followed by cervical dislocation. Thoracic aortas were removed, cleaned of adherent connective tissue, and cut into 6 mm rings. The endothelium was left intact, and the rings were mounted in individual 10 ml isolated organ chambers using standard methods for recording of isometric tension. Contractile responses were recorded with an eight-channel MacLab8E and stored on a Power Macintosh 7200 computer. Passive stretch was set at 2.5 g, and the rings were allowed to equilibrate in physiological salt solution (PSS) at 37° C. for 120 minutes before the start of experimentation. PSS was aerated with a mixture of […]; the composition was as follows (in mM): 130 NaCl, 4.7 KCl, 1.18 KH2PO4, 1.17 MgSO47H2O, 14.9 NaHCO3, 1.6 CaCl2H2O, 5.5 dextrose, and 0.03 CaNa2-EDTA 0.03 (pH 7.30).
Data were expressed as a percentage of the maximal response of each ring to the agonist.
• 1. Intact and denuded aortic blood vessel segments were prepared and mounted as described in Example 1. • 2. […] Cl (Sigma Chemical, St. Louis, Mo.), was applied to the vessels at 2, 4, 8, 12, 16, 20, 28, 40, 60, 80, and 100 mM concentrations, and the contractile response measured as described above.

[7] = tested on: isolated rings of rat aorta; settings: vasculature with intact endothelium; Lamb and Barna 1998; cited from earlier work
[8] = tested on: rat thoracic aorta rings (vascular smooth muscle), intact or denuded endothelium; test: Norepinephrine-induced contraction of isolated aortic rings, isometric tension; settings: 10 μM tamoxifen, FIG. 2
Procedure: Adult male Sprague-Dawley rats (250-300 g) were obtained from Harlan Sprague Dawley. The animals were killed by exposure to 100% CO2 for 5 minutes, followed by cervical dislocation. Thoracic aortas were removed, cleaned of adherent connective tissue, and cut into 6 mm rings. The endothelium was left intact, and the rings were mounted in individual 10 ml isolated organ chambers using standard methods for recording of isometric tension. Contractile responses were recorded with an eight-channel MacLab8E and stored on a Power Macintosh 7200 computer. Passive stretch was set at 2.5 g, and the rings were allowed to equilibrate in physiological salt solution (PSS) at 37° C. for 120 minutes before the start of experimentation. PSS was aerated with a mixture of 95% 2-5% CO2; the composition was as follows (in mM): 130 NaCl, 4.7 KCl, 1.18 KH2PO4, 1.17 MgSO47H2O, 14.9 NaHCO3, 1.6 CaCl2H2O, 5.5 dextrose, and 0.03 CaNa2-EDTA 0.03 (pH 7.30).
Intact and denuded aortic blood vessel segments were prepared, mounted as described in Example 1. • 2. […] Aliquots of NE (Sigma Chemical, St. Louis, Mo.), which had been dissolved directly into aqueous solution was applied to the vessel segments at concentrations between 10^−10 and 10^−5 M, and the contractile response measured as described above.

With `NC(=NCCC[C@H](N)C(=O)O)N[N+](=O)[O-]` [L-NNA] the “Responsiveness to norepinephrine when endothelial nitric oxide synthase is inhibited” value [1] was “increase in responsiveness”.
For `C[C@]12CC[C@@H]3c4ccc(O)cc4CC[C@H]3[C@@H]1CC[C@@H]2O` [β-estradiol], the “Swelling-induced Cl current (ICl)” value ([2]; hypotonic plus estradiol 10^−7 M, +120 mV, n=5, hypotonic only 1451±495 pA) was 3513±856 pA.
With `CCCC(C)C1(CC)C(=O)NC(=O)NC1=O` (stereo not drawn) [pentobarbital] the “Recovery time from sedation” value (Clcn3^−/− mice) was “prolonged recovery time” and the Incidence of death (Clcn3^−/− mice; even at reduced doses) was “increased incidence of death”.
With `C1CCc2nnnn2CC1` [PTZ, pentylenetetrazole] the “Mice with generalized seizures” value ([3]; Clcn3^+/+ mice (7/8)) was 87.5%, the “Onset of generalized seizures” value ([3]; Clcn3^+/+ mice) was 280 ± 112 s and the “Mice with generalized seizures” value ([3]; Clcn3^+/− mice (13/15), 4-5 weeks old) was 86.7%. For the same molecule, the “Onset of generalized seizures” value ([3]; Clcn3^+/− mice) was 215 ± 56 s, the “Mice with seizure activity” value ([3]; Clcn3^−/− mice (1/8)) was 12.5% and the “Onset of seizure activity” value ([3]; Clcn3^−/− mice) was 58 s.
For `CC1CNCCN1S(=O)(=O)c1cccc2cnccc12` (stereo not drawn) [H-7], the “Effect on swelling-induced Cl current” value [2] was “increased”.
For `O=S(=O)(O)c1cc(N=C=S)ccc1C=Cc1ccc(N=C=S)cc1S(=O)(=O)O` [DIDS, 4,4′-diisothiocyanato stilbene-2,2′disulphonic acid], the “Vasodilator effect in the presence of NE or KCl” value [4] was “persisted” and the “Effect on contractile response to ED80 concentrations of NE or KCl” value [4] was “significantly inhibited”.
In the case of `CN1CCc2cccc3c2[C@H]1Cc1ccc(O)c(O)c1-3` [apomorphine], the “Men returned to sexual potency” value (erectile function; men whose dysfunction had psychological origins) is given as “about 70%” and the “Time to response following administration” value (erectile function; sublingual) is given as 20 to 40 min.
For `Cc1ncc2n1-c1ccc(Cl)cc1C(c1ccccc1F)=NC2` [midazolam], the “Recovery time from sedation” value (Clcn3^−/− mice) was “prolonged recovery time”.
For `CC/C(=C(\c1ccccc1)c1ccc(OCCN(C)C)cc1)c1ccccc1` [tamoxifen, 1-p-β-dimethylaminoethoxyphenyl-trans-1,2-diphenylbut-1-ene], the “Block of ion channel responsible for swelling-induced chloride conductance” value [5] is given as “block”, the “Effect on KCl sensitivity/contractility of denuded vessel segments” value [6] is given as “corrects the increase in vascular smooth muscle sensitivity to KCl” and the “Effect on norepinephrine-induced contraction of normal vasculature” value [7] is given as “no effect”. For the same molecule, the “Effect on NE sensitivity/contractility of endothelially compromised (denuded) vessel segments” value [8] was “shifts the dose-response curve of NE back to the right”, the Swelling-induced chloride current ([2]; hypotonic + H7 (10^−5 M) + tamoxifen, n=3, hypotonic 1204±313 pA) was 878±493 pA and the “Effect on swelling-induced Cl current” value [2] was “inhibited”.
With `O=C(O)c1cccnc1Nc1cccc(C(F)(F)F)c1` [niflumic acid] the “Vasodilator effect in the presence of NE or KCl” value [4] was “persisted” and the “Effect on contractile response to ED80 concentrations of NE or KCl” value [4] was “significantly inhibited”.

Source: patent US7393864B2, “Use of ClC3 chloride channel blockers to modulate vascular tone” (University of Iowa Research Foundation, priority 1999, dated 2008)
